Reference: ChEMBL document CHEMBL2074150, “Nucleotide binding and nucleotide hydrolysis properties of the ABC transporter MRP6 (ABCC6)” (Biochemistry, 2002)

Legend:
Assay type in all cases: functional, cell membranes, Membrane
Conditions in all cases: komagataella pastoris
[1] = molecular target: T1, ATP-binding cassette sub-family C member 6 (Rattus norvegicus, UniProt O88269); assay: TP_TRANSPORTER: inhibition of photolabeling by IAARh123 (IAARh123: 1 uM, K571: 1000 uM) in membranes from Mrp6-expressing P. pastoris
[2] = molecular target: T1, ATP-binding cassette sub-family C member 6; assay: TP_TRANSPORTER: inhibition of photolabeling by IAARh123 (IAARh123: 1 uM, DOX: 1000 uM) in membranes from Mrp6-expressing P. pastoris
[3] = molecular target: T1, ATP-binding cassette sub-family C member 6; assay: TP_TRANSPORTER: inhibition of photolabeling by IAARh123 (IAARh123: 1 uM, VBL: 1000 uM) in membranes from Mrp6-expressing P. pastoris
[4] = molecular target: T1, ATP-binding cassette sub-family C member 6; assay: TP_TRANSPORTER: inhibition of photolabeling by IAARh123 (IAARh123: 1 uM, LTC4: 300 uM) in membranes from Mrp6-expressing P. pastoris
[5] = molecular target: T1, ATP-binding cassette sub-family C member 6; assay: TP_TRANSPORTER: inhibition of photolabeling by IAARh123 (IAARh123: 1 uM, VP-16: 1000 uM) in membranes from Mrp6-expressing P. pastoris

T1 sequence (O88269 whole entry): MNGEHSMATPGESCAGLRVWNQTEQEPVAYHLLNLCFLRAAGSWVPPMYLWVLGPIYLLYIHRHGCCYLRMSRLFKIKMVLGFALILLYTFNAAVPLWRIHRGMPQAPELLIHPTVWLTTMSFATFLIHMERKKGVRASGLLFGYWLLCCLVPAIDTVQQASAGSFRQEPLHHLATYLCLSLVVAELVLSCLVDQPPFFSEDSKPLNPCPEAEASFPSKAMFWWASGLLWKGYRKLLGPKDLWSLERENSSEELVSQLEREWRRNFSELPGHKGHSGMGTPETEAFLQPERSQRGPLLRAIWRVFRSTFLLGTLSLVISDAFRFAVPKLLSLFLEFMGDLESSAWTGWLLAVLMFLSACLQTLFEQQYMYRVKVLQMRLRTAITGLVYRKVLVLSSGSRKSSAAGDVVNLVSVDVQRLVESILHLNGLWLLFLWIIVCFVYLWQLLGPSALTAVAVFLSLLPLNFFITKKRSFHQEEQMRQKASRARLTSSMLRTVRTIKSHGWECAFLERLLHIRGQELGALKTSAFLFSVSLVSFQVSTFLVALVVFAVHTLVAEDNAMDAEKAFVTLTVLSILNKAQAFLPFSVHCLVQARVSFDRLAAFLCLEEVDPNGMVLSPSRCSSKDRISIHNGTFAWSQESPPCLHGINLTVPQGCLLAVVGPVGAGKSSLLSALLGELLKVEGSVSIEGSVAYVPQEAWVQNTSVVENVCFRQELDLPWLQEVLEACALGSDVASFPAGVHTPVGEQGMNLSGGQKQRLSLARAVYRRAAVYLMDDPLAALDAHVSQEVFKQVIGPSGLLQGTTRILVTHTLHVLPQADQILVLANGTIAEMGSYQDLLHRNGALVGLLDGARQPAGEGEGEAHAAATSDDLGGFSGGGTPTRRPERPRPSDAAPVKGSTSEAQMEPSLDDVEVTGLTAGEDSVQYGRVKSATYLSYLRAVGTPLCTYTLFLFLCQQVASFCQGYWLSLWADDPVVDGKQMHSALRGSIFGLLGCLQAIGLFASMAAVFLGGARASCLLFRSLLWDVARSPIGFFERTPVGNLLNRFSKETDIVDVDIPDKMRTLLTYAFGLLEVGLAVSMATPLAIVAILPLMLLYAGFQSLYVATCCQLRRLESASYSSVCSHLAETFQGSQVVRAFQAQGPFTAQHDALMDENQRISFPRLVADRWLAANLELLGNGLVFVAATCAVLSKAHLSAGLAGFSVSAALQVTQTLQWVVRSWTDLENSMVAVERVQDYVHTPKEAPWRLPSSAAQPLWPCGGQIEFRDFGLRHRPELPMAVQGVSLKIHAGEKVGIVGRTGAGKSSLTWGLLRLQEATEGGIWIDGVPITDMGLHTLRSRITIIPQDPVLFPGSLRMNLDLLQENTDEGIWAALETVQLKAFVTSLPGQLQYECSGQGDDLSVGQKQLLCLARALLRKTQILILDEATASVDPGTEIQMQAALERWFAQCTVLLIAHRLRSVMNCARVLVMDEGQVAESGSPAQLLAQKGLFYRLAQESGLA

CN(C)C(=O)CCSC(SCCC(=O)O)c1cccc(/C=C/c2ccc3ccc(Cl)cc3n2)c1 (stereo not given) [MK-571]
Activity [1]: inhibitor [(at a rough estimate) 60 % of control]

COc1cccc2c1C(=O)c1c(O)c3c(c(O)c1C2=O)C[C@@](O)(C(=O)CO)C[C@@H]3O[C@H]1C[C@H](N)[C@H](O)[C@H](C)O1 [DOXORUBICIN]
Activity [2]: inhibitor [(at a rough estimate) 55 % of control]

CC[C@]1(O)C[C@@H]2CN(CCc3c([nH]c4ccccc34)[C@@](C(=O)OC)(c3cc4c(cc3OC)N(C)[C@H]3[C@@](O)(C(=O)OC)[C@H](OC(C)=O)[C@]5(CC)C=CCN6CC[C@]43[C@@H]65)C2)C1 [VINBLASTINE]
Activity [3]: inhibitor [(at a rough estimate) 55 % of control]

CCCCC/C=C\C\C=C/C=C/C=C/[C@@H](SC[C@@H](NC(=O)CC[C@H](N)C(=O)O)C(=O)NCC(=O)O)[C@@H](O)CCCC(=O)O [LEUKOTRIEN C4]
Activity [4]: is not an inhibitor [-]

COc1cc([C@@H]2c3cc4c(cc3[C@@H](O[C@@H]3O[C@@H]5CO[C@@H](C)O[C@H]5[C@H](O)[C@H]3O)[C@H]3COC(=O)[C@H]23)OCO4)cc(OC)c1O [ETOPOSIDE]
Activity [5]: is not an inhibitor [-]
